Experimental data: PubChem BioAssay (NCI)
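These data come from cells grown in 96-well plates and exposed to compound for 48 hours at five concentrations. GI50 is the concentration that inhibits growth by half. Definition used: TGI = concentration required for complete inhibition of growth.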

Test system: SF-295 CNS
Assay: NCI tumour cell line growth inhibition, 48 h

Cc1nn(C(=O)c2ccc(Cl)cc2)c2c1C(c1ccc(O)cc1)SC(N)=N2 (stereo unspecified) and O=C1C(Cl)=C(Nc2ccccc2O)C(=O)N1Cc1ccccc1 cannot be ordered by TGI: over 10 µM for the first, 52.9 µM for the second.

O=C(O)CSc1n[nH]c(Cc2ccccc2)n1 showed a TGI of over 100 µM.

With O=C1C(Cl)=C(Nc2ccccc2O)C(=O)N1Cc1ccccc1 the GI50 was 26.2 µM.

Test system: A498 renal
Assay: NCI tumour cell line growth inhibition, 48 h

Nc1ccc2[nH]cc(CCC(=O)O)c2c1 and CCOC(=O)Cn1c(=O)n(C)c(=O)c2c1ncn2Cc1ccccc1 cannot be ordered by TGI: over 100 µM for the first, over 100 µM for the second.

Going from Cc1cccc(C(C)C)c1NC(=O)C(=O)C(C(=O)c1ccccc1F)C1OC(=O)c2ccccc21 (stereo unspecified) to Cc1cccc(C)c1NC(=O)C(=O)CC(=O)c1cccc([N+](=O)[O-])c1, the TGI rises from 45.1 µM to over 100 µM.

Going from Cc1ccc(Nc2nnc(-c3ccc4c(c3)OCO4)o2)c(C)c1 to Cc1cc(C)n(-c2nnc3n2N=C(c2ccc(-c4ccccc4)cc2)CS3)n1, the TGI falls from over 100 µM to 7.09 µM.

Cc1ccc(S(=O)(=O)NC(=O)NC2=NC(C)(C)N(c3ccc(Cl)c(Cl)c3)C(N)=N2)cc1 and CC1=C(c2cc(C(=O)Nc3ccc(Cl)cc3)nc(=S)[nH]2)Sc2ccccc2N1 cannot be ordered by TGI: over 100 µM for the first, over 100 µM for the second.

O=C(O)CN(c1ccccc1)S(=O)(=O)c1ccc([N+](=O)[O-])cc1 and COC(=O)/C(=C\c1ccc(N(CCC#N)CCC#N)cc1)NC(=O)c1cc([N+](=O)[O-])ccc1Cl cannot be ordered by TGI: over 100 µM for the first, over 100 µM for the second.

Going from Clc1cc(Cl)cc(Nc2ccc3cc(OCCCN4CCOCC4)ccc3n2)c1 to O=C1C(=O)N(c2cc(Cl)ccc2Cl)C(=O)C(=O)C1c1nc2ccccc2o1, the TGI rises from 8.78 µM to over 100 µM.

N#CC(C(=O)CCC(=O)Nc1cccc(C(F)(F)F)c1)c1ccc(Cl)cc1 (stereo unspecified) and CCOc1ccccc1NC(=O)C(=O)Cc1nc2ccccc2s1 cannot be ordered by TGI: over 100 µM for the first, over 100 µM for the second.

Cc1cc(C(C)(C)C)cc(Cc2cc(C(C)(C)C)cc(Cc3cc(C(C)(C)C)cc(C)c3O)c2O)c1O and COc1cc(C2C(C(=O)Nc3cc(F)c(F)cc3F)=C(C)NC(C)=C2C(=O)Nc2cc(F)c(F)cc2F)ccc1O are within 1.5-fold of each other in TGI: 45.1 µM for the first, 55.3 µM for the second.

First: COC1=C(Br)C(=O)c2nc(C)ccc2C1=O
Second: CCN(CC)c1cc2oc3cc(N)cc(=N)c-3nc2cc1C
The TGI of the first is 2.1-fold lower: 36.4 µM for the first, 74.7 µM for the second.

First: O=C(CSC(c1ccccc1)c1ccccc1)N/N=C/c1ccco1
Second: O=C1C(Cl)=C(Nc2ccccc2O)C(=O)N1Cc1ccccc1
The TGI of the first is 7.6-fold lower: 5.37 µM for the first, 40.6 µM for the second.

Compared with COc1ccc2c3c(Nc4ccc(/C(C)=N/O)cc4)[nH]c4ccccc4c-3c(N=O)c2c1, CN(C)CCSc1nccc(-c2cc3ccccc3s2)n1 is 2.1-fold higher in TGI: 27.2 µM for the first, 58.3 µM for the second.

N.N.NCCCCCCCCCN.O=C([O-])CC(=O)[O-].O=C([O-])CC(=O)[O-].[Pt+4].[Pt+4] and O=C(O)C12CC3(C(=O)O)CC(C(=O)O)(CC(C(=O)O)(C1)C3=O)C2=O cannot be ordered by TGI: over 100 µM for the first, over 100 µM for the second.

Going from CC(=O)OC1C2CCC1C1C2C2(Cl)C(Cl)=C(Cl)C1(Cl)C2(Cl)Cl (stereo unspecified) to C[C@H]1CCC/C=C/[C@@H]2C[C@H](O)C[C@H]2[C@H](O)[C@@H](SCC(O)CO)CC(=O)O1 (stereo partly specified), the TGI rises from 27 µM to 50.2 µM (1.9-fold).

CC(C)(C)OC(=O)N1N=NC2C1C1CC(OCc3ccccc3)(OCc3ccccc3)C2O1 (stereo unspecified) and CCC(=O)Nc1ccc(N=NN(C)C)cc1 cannot be ordered by TGI: over 100 µM for the first, over 100 µM for the second.

O=S1(=O)OCCOS(=O)(=O)C1Cl showed a TGI of over 100 µM.

Going from Cc1cc(C)n(-c2nnc3n2N=C(c2ccc(-c4ccccc4)cc2)CS3)n1 to COc1ccc2c3c(Nc4ccc(/C(C)=N/O)cc4)[nH]c4ccccc4c-3c(N=O)c2c1, the GI50 rises from 2.03 µM to 12.9 µM (6.4-fold).

Going from Clc1cc(Cl)cc(Nc2ccc3cc(OCCCN4CCOCC4)ccc3n2)c1 to O=C1C(Cl)=C(Nc2ccccc2O)C(=O)N1Cc1ccccc1, the GI50 rises from 1.93 µM to 18.4 µM (9.5-fold).

Going from O=C(CSC(c1ccccc1)c1ccccc1)N/N=C/c1ccco1 to C[C@H]1CCC/C=C/[C@@H]2C[C@H](O)C[C@H]2[C@H](O)[C@@H](SCC(O)CO)CC(=O)O1 (stereo partly specified), the GI50 rises from 1.89 µM to 24.4 µM (13-fold).

First: N.N.NCCCCCCCCCN.O=C([O-])CC(=O)[O-].O=C([O-])CC(=O)[O-].[Pt+4].[Pt+4]
Second: CCN(CC)c1cc2oc3cc(N)cc(=N)c-3nc2cc1C
The GI50 of the first is higher: over 100 µM for the first, 16.3 µM for the second.

Test system: HL-60(TB) leukemia
Assay: NCI tumour cell line growth inhibition, 48 h

Going from Nc1ccc2[nH]cc(CCC(=O)O)c2c1 to O=C(O)CSc1n[nH]c(Cc2ccccc2)n1, the TGI rises from 76.5 µM to over 100 µM.

Cc1cccc(C)c1NC(=O)C(=O)CC(=O)c1cccc([N+](=O)[O-])c1 and Cc1cccc(N=C2NC(=O)C(CC(=O)Nc3cccc(C)c3C)S2)c1 (stereo unspecified) cannot be ordered by TGI: over 100 µM for the first, over 100 µM for the second.

Cc1ccc(S(=O)(=O)NC(=O)NC2=NC(C)(C)N(c3ccc(Cl)c(Cl)c3)C(N)=N2)cc1 and CC1=C(C(=O)NNS(=O)(=O)c2ccc(C)cc2)CC(C(=O)NNS(=O)(=O)c2ccc(C)cc2)=C(C)N1 cannot be ordered by TGI: over 100 µM for the first, over 100 µM for the second.

S=C1SC2=Nc3ccccc3CN2C2=NCCN12 and Nc1ccc2nc3n(c2c1)C(=O)c1ccccc1-3 cannot be ordered by TGI: over 100 µM for the first, over 100 µM for the second.

Compared with CC1=C(c2cc(C(=O)Nc3ccc(Cl)cc3)nc(=S)[nH]2)Sc2ccccc2N1, COc1ccc2c3c(Nc4ccc(/C(C)=N/O)cc4)[nH]c4ccccc4c-3c(N=O)c2c1 is lower in TGI: over 100 µM for the first, 3.06 µM for the second.

O=C(O)CN(c1ccccc1)S(=O)(=O)c1ccc([N+](=O)[O-])cc1 and CCOc1ccccc1NC(=O)C(=O)Cc1nc2ccccc2s1 cannot be ordered by TGI: over 100 µM for the first, over 100 µM for the second.

First: Clc1cc(Cl)cc(Nc2ccc3cc(OCCCN4CCOCC4)ccc3n2)c1
Second: O=C1C(=O)N(c2cc(Cl)ccc2Cl)C(=O)C(=O)C1c1nc2ccccc2o1
The TGI of the first is lower: 5.96 µM for the first, over 100 µM for the second.

Going from [F][Sn]([F])([c]1ccccc1)[c]1ccccc1 to CC(C)(C)OC(=O)N1N=NC2C1C1CC(OCc3ccccc3)(OCc3ccccc3)C2O1 (stereo unspecified), the TGI rises from 3.07 µM to 31.9 µM (10-fold).

N#CC(C(=O)CCC(=O)Nc1cccc(C(F)(F)F)c1)c1ccc(Cl)cc1 (stereo unspecified) and Cc1nn(C(=O)c2ccc(Cl)cc2)c2c1C(c1ccc(O)cc1)SC(N)=N2 (stereo unspecified) cannot be ordered by TGI: over 100 µM for the first, over 10 µM for the second.

First: Cc1cc(C(C)(C)C)cc(Cc2cc(C(C)(C)C)cc(Cc3cc(C(C)(C)C)cc(C)c3O)c2O)c1O
Second: COc1cc(C2C(C(=O)Nc3cc(F)c(F)cc3F)=C(C)NC(C)=C2C(=O)Nc2cc(F)c(F)cc2F)ccc1O
The TGI of the first is 3.3-fold lower: 12.5 µM for the first, 40.7 µM for the second.

N.N.NCCCCCCCCCN.O=C([O-])CC(=O)[O-].O=C([O-])CC(=O)[O-].[Pt+4].[Pt+4] and CCC(=O)Nc1ccc(N=NN(C)C)cc1 cannot be ordered by TGI: over 100 µM for the first, over 100 µM for the second.

Going from CC(C(=O)n1c2ccccc2c2ccccc21)N(c1ccccc1)c1ccccc1 (stereo unspecified) to CCCCc1c2c(nc3c1CCC/C3=C\c1ccccc1)/C(=C/c1ccccc1)CCC2, the TGI rises from 20.6 µM to over 100 µM.

Compared with O=C1CSC(c2ccc(-c3nc4ccccc4s3)cc2)=N1, C[C@H]1CCC/C=C/[C@@H]2C[C@H](O)C[C@H]2[C@H](O)[C@@H](SCC(O)CO)CC(=O)O1 (stereo partly specified) is lower in TGI: over 100 µM for the first, 94.7 µM for the second.

For O=S1(=O)OCCOS(=O)(=O)C1Cl, the TGI was over 100 µM.

In order of falling GI50:
1. S=C1SC2=Nc3ccccc3CN2C2=NCCN12  89.2 µM
2. C[C@H]1CCC/C=C/[C@@H]2C[C@H](O)C[C@H]2[C@H](O)[C@@H](SCC(O)CO)CC(=O)O1 (stereo partly specified)  29.3 µM
3. O=C1CSC(c2ccc(-c3nc4ccccc4s3)cc2)=N1  18.4 µM
4. N.N.NCCCCCCCCCN.O=C([O-])CC(=O)[O-].O=C([O-])CC(=O)[O-].[Pt+4].[Pt+4]  13.4 µM
5. Clc1cc(Cl)cc(Nc2ccc3cc(OCCCN4CCOCC4)ccc3n2)c1  2.57 µM
6. COc1ccc2c3c(Nc4ccc(/C(C)=N/O)cc4)[nH]c4ccccc4c-3c(N=O)c2c1  1.26 µM
7. [F][Sn]([F])([c]1ccccc1)[c]1ccccc1  1.01 µM

Test system: SR leukemia
Assay: NCI tumour cell line growth inhibition, 48 h

Cc1ccc(Nc2nnc(-c3ccc4c(c3)OCO4)o2)c(C)c1 and Cc1cc(C)n(-c2nnc3n2N=C(c2ccc(-c4ccccc4)cc2)CS3)n1 cannot be ordered by TGI: over 100 µM for the first, over 100 µM for the second.

Cc1cccc(C)c1NC(=O)C(=O)CC(=O)c1cccc([N+](=O)[O-])c1 and CCOc1ccccc1NC(=O)C(=O)Cc1nc2ccccc2s1 cannot be ordered by TGI: over 100 µM for the first, over 100 µM for the second.

Cc1ccc(S(=O)(=O)NC(=O)NC2=NC(C)(C)N(c3ccc(Cl)c(Cl)c3)C(N)=N2)cc1 and CC1=C(C(=O)NNS(=O)(=O)c2ccc(C)cc2)CC(C(=O)NNS(=O)(=O)c2ccc(C)cc2)=C(C)N1 cannot be ordered by TGI: over 100 µM for the first, over 100 µM for the second.

S=C1SC2=Nc3ccccc3CN2C2=NCCN12 and CN(C)CCSc1nccc(-c2cc3ccccc3s2)n1 are within 1.5-fold of each other in TGI: 55.7 µM for the first, 63.4 µM for the second.

First: [F][Sn]([F])([c]1ccccc1)[c]1ccccc1
Second: O=C1C(Cl)=C(Nc2ccccc2O)C(=O)N1Cc1ccccc1
The TGI of the first is lower: 3.81 µM for the first, over 100 µM for the second.

COC(=O)/C(=C\c1ccc(N(CCC#N)CCC#N)cc1)NC(=O)c1cc([N+](=O)[O-])ccc1Cl and Cc1nn(C(=O)c2ccc(Cl)cc2)c2c1C(c1ccc(O)cc1)SC(N)=N2 (stereo unspecified) cannot be ordered by TGI: 81.5 µM for the first, over 10 µM for the second.

Compared with COC1=C(Br)C(=O)c2nc(C)ccc2C1=O, Nc1ccc2nc3n(c2c1)C(=O)c1ccccc1-3 is higher in TGI: 6.79 µM for the first, over 100 µM for the second.

First: COc1ccc2c3c(Nc4ccc(/C(C)=N/O)cc4)[nH]c4ccccc4c-3c(N=O)c2c1
Second: CC(C(=O)n1c2ccccc2c2ccccc21)N(c1ccccc1)c1ccccc1 (stereo unspecified)
The TGI of the first is 6.5-fold lower: 4.27 µM for the first, 27.7 µM for the second.

First: CC(=O)OC1C2CCC1C1C2C2(Cl)C(Cl)=C(Cl)C1(Cl)C2(Cl)Cl (stereo unspecified)
Second: C[C@H]1CCC/C=C/[C@@H]2C[C@H](O)C[C@H]2[C@H](O)[C@@H](SCC(O)CO)CC(=O)O1 (stereo partly specified)
The TGI of the first is 3.9-fold lower: 24.6 µM for the first, 96.8 µM for the second.

CCOC(=O)Cn1c(=O)n(C)c(=O)c2c1ncn2Cc1ccccc1 and O=C(O)CSc1n[nH]c(Cc2ccccc2)n1 cannot be ordered by TGI: over 100 µM for the first, over 100 µM for the second.

Going from CCCCc1c2c(nc3c1CCC/C3=C\c1ccccc1)/C(=C/c1ccccc1)CCC2 to O=C1CSC(c2ccc(-c3nc4ccccc4s3)cc2)=N1, the TGI falls from over 100 µM to 59.8 µM.

O=C(O)C12CC3(C(=O)O)CC(C(=O)O)(CC(C(=O)O)(C1)C3=O)C2=O and O=S1(=O)OCCOS(=O)(=O)C1Cl cannot be ordered by TGI: over 100 µM for the first, over 100 µM for the second.

In order of rising GI50:
1. [F][Sn]([F])([c]1ccccc1)[c]1ccccc1  1.18 µM
2. COc1ccc2c3c(Nc4ccc(/C(C)=N/O)cc4)[nH]c4ccccc4c-3c(N=O)c2c1  1.47 µM
3. Cc1cc(C)n(-c2nnc3n2N=C(c2ccc(-c4ccccc4)cc2)CS3)n1  3.06 µM
4. O=C1CSC(c2ccc(-c3nc4ccccc4s3)cc2)=N1  13.1 µM
5. S=C1SC2=Nc3ccccc3CN2C2=NCCN12  18.7 µM
6. C[C@H]1CCC/C=C/[C@@H]2C[C@H](O)C[C@H]2[C@H](O)[C@@H](SCC(O)CO)CC(=O)O1 (stereo partly specified)  29 µM
7. O=C1C(Cl)=C(Nc2ccccc2O)C(=O)N1Cc1ccccc1  51.7 µM
